# Molecular target: Melanocortin receptor 5 (Homo sapiens, UniProt P33032)
# Test: Radioligand Binding Assay: Assessments of compound binding to human MC5R (hMC5R)) by displacement of an 125I-labeled NDP-MSH receptor ligand peptide were performed essentially as described in the data sheets produced by Perkin Elmer to accompany their frozen hMC5R membranes (Perkin Elmer catalog number RBXMC5M400UA). [125I] NDP-MSH: Radiolabeled in House and Purified by HPLC: Na125I (0.5 mCi, 17.4 Ci/mg) was added to 50 μL sodium phosphate (50 mM, pH 7.4) in an eppendorf tube precoated with IODOGEN. After incubation for 10 mins the phosphate buffer containing the iodine was added to NDP-MSH (10 μl at 1 mg/mL) in a separate eppendorf tube. This was incubated for a further 10 mins. The iodinated NDP-MSH was purified by HPLC on a Zorbax SB 300 column using solvent A: 0.05% TFA and solvent B: 90% acetonitrile 0.045% TFA with a linear gradient, 0-67% B over 60 mins. The 125I NDP-MSH eluted at 52 mins after the unlabeled starting material (48 min) and was counted and stored in the freezer. […] Incubation buffer: 25 mM HEPES-KOH (pH 7.0), 1.5 mM CaCl2, 1 mM MgSO4, 0.1 M NaCl, 1 mM 1,10-phenanthroline, and 1 Complete™ protease inhibitor tablet/100 mL (Roche, catalog number 1873580). Perkin Elmer frozen hMC5 membranes: catalog number RBXMC5M400UA, 0.4 mL/vial; 400 microassays/vial, 0.78 mg/mL protein concentration. Vials of frozen membranes were thawed rapidly immediately before use, diluted with binding buffer and vortexed. Resuspended membranes were kept on ice until they were added to the wells of the plate. Assays were performed in 96 well polypropylene plates. […] This was incubated for 1 hr at 37° C.
# Chain of Melanocortin receptor 5 (P33032 whole entry): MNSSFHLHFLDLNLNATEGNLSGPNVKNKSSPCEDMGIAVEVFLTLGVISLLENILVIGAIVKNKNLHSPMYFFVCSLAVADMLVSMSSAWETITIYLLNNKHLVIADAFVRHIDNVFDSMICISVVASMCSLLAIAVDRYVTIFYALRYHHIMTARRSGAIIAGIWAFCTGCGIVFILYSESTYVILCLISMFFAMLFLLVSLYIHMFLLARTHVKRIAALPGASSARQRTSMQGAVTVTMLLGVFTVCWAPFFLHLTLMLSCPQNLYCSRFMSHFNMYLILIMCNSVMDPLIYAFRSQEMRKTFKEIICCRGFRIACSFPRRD
row,Compound,IC50 [nM]
1,O=C(/C=C/c1ccc(Cl)cc1)NC[C@@H]1CCN(CC(c2ccccc2)c2ccccc2)C(=O)[C@H](CC2CCCCC2)N1,< 1000
2,N=C(N)NCCC[C@@H]1N[C@H](CNC(=O)c2cccc(Oc3ccccc3)c2)CCN(CC(c2ccccc2)c2ccccc2)C1=O,< 100
3,N=C(N)NCCC[C@@H]1N[C@H](CNC(=O)/C=C/c2ccc(Cl)cc2)CCN(CC(c2ccccc2)c2ccccc2)C1=O,< 100
4,N=C(N)NCCC[C@@H]1N[C@H](CNC(=O)c2ccc(Oc3ccccc3)cc2)CCN(CC(c2ccccc2)c2ccccc2)C1=O,< 1000

# Next, values leading:
row,IC50 [nM],Compound
1,< 1000,N=C(N)NCCC[C@@H]1N[C@H](CNC(=O)c2ccc3ccccc3c2)CCN(CCc2ccc(Cl)cc2Cl)C1=O
2,< 10000,N=C(N)NCCC[C@@H]1N[C@H](CNC(=O)c2ccc3ccccc3c2)CCN(CCc2ccc(Cl)c(Cl)c2)C1=O
3,< 100,N=C(N)NCCC[C@@H]1N[C@H](CNC(=O)c2ccc3cc(O)ccc3c2)CCN(CC(c2ccccc2)c2ccccc2)C1=O

# Source: ChEMBL document CHEMBL3886716, “Methods of modulating the activity of the MC5 receptor and treatment of conditions related to this receptor” (2016)
